# Reference: article PMC8355244, “A fragment-based approach identifies an allosteric pocket that impacts malate dehydrogenase activity” (Communications Biology, 2021)
# “And” between values parts separate entries of the source, which are not always exact repeats. Equal entries are not always repeated.
# Target: T1, PfMDH (Plasmodium falciparum, UniProt Q6VVP7)
# T1 construct: The full-length WT PfMDH gene was cloned into pETM-13; made in house; host or cells: E. coli Rosetta 2 (DE3) pLysS
# Assay: Thermal shift assay (TSA)
# Format: binding
# Details: for TSA melting curve raw signal: triplicate columns; for TSA melting curve raw fluorescence signal: three replicate columns
# Protocol: The TSA experiment was conducted in a BioRad CSX 96 (Biorad). Each reaction consisted of 1 mM of compound (100 mM stock in 100% (v/v) DMSO) and 10 μM PfMDH in 100 mM Na–phosphate buffer pH 7.4, 400 mM NaCl, and 10× Sypro Orange (Invitrogen) for a total volume of 100 μl. Control experiments were performed with 1% (v/v) DMSO. Inflection points were determined using BioRad CFX96™ control software. Generally, a temperature increase of over 1 °C is interpreted as a result of the stabilization of the protein-ligand interaction. On the contrary, a negative shift is considered a destabilization caused by the fragment.
# T1 sequence (Q6VVP7 entry or part of it): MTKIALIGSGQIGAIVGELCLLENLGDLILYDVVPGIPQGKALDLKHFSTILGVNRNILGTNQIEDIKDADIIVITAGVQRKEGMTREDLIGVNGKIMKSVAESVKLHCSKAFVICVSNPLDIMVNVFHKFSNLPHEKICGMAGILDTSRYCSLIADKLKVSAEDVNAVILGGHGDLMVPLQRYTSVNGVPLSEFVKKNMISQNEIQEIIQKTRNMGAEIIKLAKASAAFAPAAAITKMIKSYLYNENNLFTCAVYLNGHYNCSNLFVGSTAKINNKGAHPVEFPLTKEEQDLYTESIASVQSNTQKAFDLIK
structure (smiles),measurement,setting,value
Cc1ccc(-c2csc(N)n2)cc1C [compound 5a],ΔTm at 1000 µM,1 mM compound vs DMSO control,-4 °C
same,Tm,"1 mM compound, 10 μM PfMDH, DMSO control Tm 58",54.0 ± 0.2 °C
same,TSA melting curve raw signal,Temperature 25,"4361,22691625664 and 4136,47480077282"
same,TSA melting curve raw signal,Temperature 28.5,"4004,87351225735 and 4183,98281996697 and 3977,18518163549"
same,TSA melting curve raw signal,Temperature 29,"3986,17580138025 and 4159,213140841 and 3954,9246822172"
same,TSA melting curve raw signal,Temperature 29.5,"3965,52273011401 and 4133,77316232738 and 3931,4868089647"
same,TSA melting curve raw signal,Temperature 30,"3942,69196918976 and 4107,074098257 and 3906,46894255822"
same,TSA melting curve raw signal,Temperature 30.5,"3918,20361111847 and 4079,7505229192 and 3880,66961233132"
same,TSA melting curve raw signal,Temperature 31,"3892,85755253156 and 4052,78803951145 and 3854,85757088369"
same,TSA melting curve raw signal,Temperature 31.5,"3868,35453137919 and 4026,78761104422 and 3830,51973110108"
same,TSA melting curve raw signal,Temperature 32,"3846,14582452398 and 4002,89304325356 and 3808,96381740298"
same,TSA melting curve raw signal,Temperature 32.5,"3827,35535230328 and 3981,88234223881 and 3791,26035282333"
same,TSA melting curve raw signal,Temperature 33,"3812,58320085949 and 3964,3028642829 and 3777,54515038218"
same,TSA melting curve raw signal,Temperature 33.5,"3801,69756150235 and 3949,2862317403 and 3767,92816787175"
same,TSA melting curve raw signal,Temperature 34,"3794,14835836044 and 3937,14669832695 and 3761,78012801461"
same,TSA melting curve raw signal,Temperature 34.5,"3789,41768425867 and 3927,49825494442 and 3758,75347546959"
same,TSA melting curve raw signal,Temperature 35,"3787,20107392869 and 3920,20996880984 and 3758,62073564665"
same,TSA melting curve raw signal,Temperature 35.5,"3787,42445071158 and 3914,62343444524 and 3761,24267883563"
same,TSA melting curve raw signal,Temperature 36,"3789,87806432584 and 3911,1710367624 and 3766,28559252083"
same,TSA melting curve raw signal,Temperature 36.5,"3794,85229304264 and 3909,49204056619 and 3773,84282790235"
same,TSA melting curve raw signal,Temperature 37,"3802,25424487634 and 3909,25385384206 and 3783,72084315967"
same,TSA melting curve raw signal,Temperature 37.5,"3812,04395610452 and 3910,368484837 and 3795,67572672777"
same,TSA melting curve raw signal,Temperature 38,"3823,44040340727 and 3913,02621291175 and 3809,89581343172"
same,TSA melting curve raw signal,Temperature 38.5,"3837,03387753428 and 3917,20362777738 and 3826,4956570889"
same,TSA melting curve raw signal,Temperature 39,"3852,32039847376 and 3922,75702566821 and 3845,46925064995"
same,TSA melting curve raw signal,Temperature 39.5,"3869,53236426586 and 3930,26334549594 and 3867,32940969988"
same,TSA melting curve raw signal,Temperature 40,"3888,57436192082 and 3939,63549689652 and 3891,99828571263"
same,TSA melting curve raw signal,Temperature 40.5,"3909,9422248531 and 3951,08452102982 and 3919,26474950283"
same,TSA melting curve raw signal,Temperature 41,"3933,37089433234 and 3964,6560667334 and 3949,14976176316"
same,TSA melting curve raw signal,Temperature 41.5,"3959,61189650686 and 3980,53295877896 and 3981,80921424824"
same,TSA melting curve raw signal,Temperature 42,"3988,71833711846 and 3998,73387424263 and 4016,77538143681"
same,TSA melting curve raw signal,Temperature 42.5,"4021,21607007206 and 4019,84430210471 and 4054,60967755587"
same,TSA melting curve raw signal,Temperature 43,"4057,66089779623 and 4044,0111947974 and 4095,39361771176"
same,TSA melting curve raw signal,Temperature 43.5,"4098,50799079596 and 4071,35680793258 and 4139,49703067488"
same,TSA melting curve raw signal,Temperature 44,"4143,7029279742 and 4102,93490558282 and 4187,23267299696"
same,TSA melting curve raw signal,Temperature 44.5,"4193,76415817757 and 4139,12758979339"
same,TSA melting curve raw fluorescence signal,Temperature 73.5,"6299,79889324093 and 6231,78067625527 and 6109,60097267495"
same,TSA melting curve raw fluorescence signal,Temperature 74,"6263,77685489112 and 6199,60301810331 and 6079,58574419186"
same,TSA melting curve raw fluorescence signal,Temperature 74.5,"6227,81230039343 and 6168,07294306546 and 6050,3648537714"
